Reference: ChEMBL document CHEMBL1147103, “First identification of Pseudomonas aeruginosa isolates producing a KPC-type carbapenem-hydrolyzing beta-lactamase” (2007)
≈ marks a conversion by molar mass, not a printed value.

What was measured:
Type in all cases: functional
Pseudomonas aeruginosa [1] = assay: Antimicrobial susceptibility of carbapenem-resistant Pseudomonas aeruginosa PA4012 isolate expressing carbapenemase KPC2
Citrobacter freundii = assay: Antimicrobial susceptibility of Citrobacter freundii CF6010 isolate expressing carbapenemase KPC2
Pseudomonas aeruginosa [2] = assay: Antimicrobial susceptibility of carbapenem-resistant Pseudomonas aeruginosa PA4036 isolate expressing carbapenemase KPC2
Pseudomonas aeruginosa [3] = assay: Antimicrobial susceptibility of carbapenem-resistant Pseudomonas aeruginosa PA2404 isolate expressing carbapenemase KPC2

Compound | MIC (Pseudomonas aeruginosa [1]) [µg/mL] | MIC (Citrobacter freundii) [µg/mL] | MIC (Pseudomonas aeruginosa [2]) [µg/mL] | MIC (Pseudomonas aeruginosa [3]) [µg/mL]
CC(O)[C@H]1C(=O)N2C(C(=O)O)=C(SCCNC=N)C[C@H]12 (single isomer, unassigned) [IMIPENEM ANHYDROUS] | > 256 | 8 (≈ 26.7 µM) | > 256 | 256 (≈ 855 µM)
CO/N=C(\C(=O)N[C@@H]1C(=O)N2C(C(=O)O)=C(COC(C)=O)CS[C@H]12)c1csc(N)n1 (stereo in doubt) [CEFOTAXIME] | > 256 | 32 (≈ 70.3 µM) | > 256 | > 256
NCC[C@H](O)C(=O)N[C@@H]1C[C@H](N)[C@@H](O[C@H]2O[C@H](CN)[C@@H](O)[C@H](O)[C@H]2O)[C@H](O)[C@H]1O[C@H]1O[C@H](CO)[C@@H](O)[C@H](N)[C@H]1O [AMIKACIN] | 16 (≈ 27.3 µM) | 2 (≈ 3.42 µM) | 16 (≈ 27.3 µM) | 16 (≈ 27.3 µM)
CC1(C)S[C@@H]2[C@H](NC(=O)[C@H](N)c3ccccc3)C(=O)N2[C@H]1C(=O)O [AMPICILLIN] | > 256 | > 256 | > 256 | > 256
C[C@H]1[C@H](NC(=O)/C(=N\OC(C)(C)C(=O)O)c2csc(N)n2)C(=O)N1S(=O)(=O)O [AZTREONAM] | > 256 | 128 (≈ 294 µM) | > 256 | > 256
CO/N=C(\C(=O)N[C@@H]1C(=O)N2C(C(=O)[O-])=C(C[N+]3(C)CCCC3)CS[C@H]12)c1csc(N)n1 [CEFEPIME] | > 256 | 8 (≈ 16.6 µM) | > 256 | > 256
CC(C)(O/N=C(\C(=O)N[C@@H]1C(=O)N2C(C(=O)[O-])=C(C[n+]3ccccc3)CS[C@H]12)c1csc(N)n1)C(=O)O [CEFTAZIDIME] | 256 (≈ 468 µM) | 32 (≈ 58.5 µM) | 256 (≈ 468 µM) | 256 (≈ 468 µM)
CO/N=C(\C(=O)N[C@@H]1C(=O)N2C(C(=O)O)=C(CSc3nc(=O)c(O)nn3C)CS[C@H]12)c1csc(N)n1 [CEFTRIAXONE] | > 256 | 256 (≈ 462 µM) | > 256 | > 256
C[C@@H](O)[C@H]1C(=O)N2C(C(=O)O)=C(S[C@@H]3CN[C@H](C(=O)Nc4cccc(C(=O)O)c4)C3)[C@H](C)[C@H]12 [ERTAPENEM] | 256 (≈ 538 µM) | 16 (≈ 33.6 µM) | > 256 | > 256
C[C@@H](O)[C@H]1C(=O)N2C(C(=O)O)=C(S[C@@H]3CN[C@H](C(=O)N(C)C)C3)[C@H](C)[C@H]12 [MEROPENEM] | > 256 | 8 (≈ 20.9 µM) | > 256 | > 256
CCN1CCN(C(=O)N[C@@H](C(=O)N[C@@H]2C(=O)N3[C@@H]2SC(C)(C)[C@@H]3C(=O)O)c2ccccc2)C(=O)C1=O [PIPERACILLIN] | > 256 | > 256 | > 256 | > 256
CN(C)c1cc(NC(=O)CNC(C)(C)C)c(O)c2c1C[C@H]1C[C@H]3[C@H](N(C)C)C(O)=C(C(N)=O)C(=O)[C@@]3(O)C(O)=C1C2=O [TIGECYCLINE] | 16 (≈ 27.3 µM) | 0.5 (≈ 0.854 µM) | 16 (≈ 27.3 µM) | 16 (≈ 27.3 µM)
NC[C@H]1O[C@H](O[C@H]2[C@H](O)[C@@H](O[C@H]3O[C@H](CO)[C@@H](O)[C@H](N)[C@H]3O)[C@H](N)C[C@@H]2N)[C@H](N)C[C@@H]1O [TOBRAMYCIN] | > 128 | 64 (≈ 137 µM) | > 128 | > 128
COLISTIN | 2 | 0.5 | 1 | 1
GENTAMICIN | > 128 | > 128 | > 128 | > 128
